This assay deals with T1, mouse TRPM3α2 (mTRPM3) ion channel (Mus musculus, UniProt J9SQF3).
T1 construct: expressed in transfected cells; host or cells: flip-in (Flp-In) HEK293
T1 sequence (J9SQF3 1-1709 isoform J9SQF3-12): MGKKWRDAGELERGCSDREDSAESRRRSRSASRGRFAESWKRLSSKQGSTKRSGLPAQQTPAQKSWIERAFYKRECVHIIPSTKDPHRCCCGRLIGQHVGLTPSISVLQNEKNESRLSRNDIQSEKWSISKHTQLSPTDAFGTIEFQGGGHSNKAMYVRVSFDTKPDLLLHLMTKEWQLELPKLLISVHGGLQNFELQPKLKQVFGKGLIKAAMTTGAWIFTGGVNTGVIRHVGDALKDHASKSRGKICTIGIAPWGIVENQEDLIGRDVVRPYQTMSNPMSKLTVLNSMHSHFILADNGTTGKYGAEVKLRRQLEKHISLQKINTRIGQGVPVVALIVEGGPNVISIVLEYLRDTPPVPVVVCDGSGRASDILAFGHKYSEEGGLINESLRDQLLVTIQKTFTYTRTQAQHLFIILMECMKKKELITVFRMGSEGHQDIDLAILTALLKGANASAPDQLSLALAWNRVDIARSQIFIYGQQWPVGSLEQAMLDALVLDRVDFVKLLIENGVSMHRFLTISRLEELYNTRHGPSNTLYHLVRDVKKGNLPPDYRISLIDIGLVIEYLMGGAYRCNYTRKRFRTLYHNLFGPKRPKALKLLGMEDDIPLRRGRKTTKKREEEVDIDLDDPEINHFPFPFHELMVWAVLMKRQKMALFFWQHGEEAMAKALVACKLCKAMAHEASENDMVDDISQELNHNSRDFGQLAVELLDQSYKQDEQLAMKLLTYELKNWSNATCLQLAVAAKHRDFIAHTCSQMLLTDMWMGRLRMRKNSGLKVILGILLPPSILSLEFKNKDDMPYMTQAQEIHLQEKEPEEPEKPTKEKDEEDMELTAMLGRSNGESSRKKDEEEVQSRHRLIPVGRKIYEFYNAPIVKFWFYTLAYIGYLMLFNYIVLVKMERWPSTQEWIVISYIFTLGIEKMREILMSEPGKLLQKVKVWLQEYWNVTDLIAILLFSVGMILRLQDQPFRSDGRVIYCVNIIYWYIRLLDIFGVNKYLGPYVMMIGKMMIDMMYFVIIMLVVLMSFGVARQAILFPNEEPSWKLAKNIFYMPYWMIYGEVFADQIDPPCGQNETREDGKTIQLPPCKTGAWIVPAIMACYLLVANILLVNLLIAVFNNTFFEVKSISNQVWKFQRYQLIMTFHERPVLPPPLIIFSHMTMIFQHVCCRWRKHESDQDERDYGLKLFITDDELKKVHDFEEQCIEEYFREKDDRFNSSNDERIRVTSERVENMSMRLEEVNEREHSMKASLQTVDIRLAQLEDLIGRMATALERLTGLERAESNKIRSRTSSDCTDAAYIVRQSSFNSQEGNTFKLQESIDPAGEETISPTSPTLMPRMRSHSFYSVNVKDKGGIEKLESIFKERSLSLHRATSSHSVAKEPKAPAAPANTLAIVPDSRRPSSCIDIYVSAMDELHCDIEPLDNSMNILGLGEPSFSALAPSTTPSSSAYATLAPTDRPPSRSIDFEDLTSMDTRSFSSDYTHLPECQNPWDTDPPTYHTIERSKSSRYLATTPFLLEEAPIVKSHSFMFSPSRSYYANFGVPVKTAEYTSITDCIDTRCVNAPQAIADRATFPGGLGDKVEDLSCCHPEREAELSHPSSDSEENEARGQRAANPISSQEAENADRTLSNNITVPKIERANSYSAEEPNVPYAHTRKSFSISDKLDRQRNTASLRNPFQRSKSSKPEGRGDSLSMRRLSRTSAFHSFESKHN
Kind of assay: Monitoring the TRPM3 ion channel driven Ca2+ uptake (Fluo-4 AM assay). Format: cell-based. Particulars: mTRPM3alpha2 overexpressing flip-in HEK293 cells, stimulated with Pregnenolone sulfate (PS) 50 μM. As for the experimental part: In order to monitor the inhibition of the mouse TRPM3α2 (mTRPM3) ion channel by the compounds of the invention, a cellular system making use of an mTRPM3alpha2 or hTRPM3 overexpressing cell line (flip-in HEK293) was used. The TRPM3 channel was stimulated/opened with Pregnenolone sulfate (PS) (50 μM) which results in Ca^2+ influx.
For mTRPM3, the intracellular Ca^2+ was measured with a Calcium responsive dye, Fluor-4 AMV ester (Invitrogen). Cells were cultured until a confluence of 80-90%, washed with Versene (Invitrogen) and detached from the surface by a short incubation with 0.05% Trypsin (Invitrogen). The trypsination process was stopped by the addition of complete cell culture medium (DMEM, glutamax, 10% FCS, NEAA,Pen-Strep). Cells were collected and resuspended in Krebs buffer without Calcium at RT.
Prior the cell seeding (±2000 cells/well into a black, 384 well plate (Greiner)) the diluted compound was added in the assay plate, together with the PS dissolved in Krebs buffer containing Calcium. […] Directly after cell addition the plates were read on an Envision fluorescence reader (PerkinElmer) by an Excitation of 485 nm and emission at 535 nm.
Channel inhibition was calculated compared to a non-PS stimulated control versus a condition stimulated with PS (50 μM) with vehicle. The ability of the compounds of the invention to inhibit this activity was determined as: Percentage inhibition=[1−((RFU determined for sample with test compound present−RFU determined for sample with positive control inhibitor) divided by (RFU determined in the presence of vehicle−RFU determined for sample with positive control inhibitor))]*100.
The activities of the Example compounds tested are depicted in the table below. The activity ranges A, B and C refer to IC50 values in the Fluo-4 AM assay as follows: “A”: IC50<1 μM; “B”: 1 μM≤IC50≤20 μM and “C”: IC50>20 μM
The IC50 is the point on the concentration scale where inhibition reaches its midpoint. Lower therefore signals greater potency. In turn, `Cc1oc2ccc(OCC(F)F)cc2c1C(=O)NC(C)(CO)C(N)=O` (single isomer, unassigned) [Cpd 041 - En1, 2-{[5-(2,2-difluoroethoxy)-2-methyl-1-benzofuran-3-yl]formamido}-3-hydroxy-2-methylpropanamide] had an IC50 below 1000 nM.
To `Cc1oc2ccc(OCC(F)F)cc2c1C(=O)NC(C)(CO)C(N)=O` (single isomer, unassigned) [Cpd 041 - En2, 2-{[5-(2,2-difluoroethoxy)-2-methyl-1-benzofuran-3-yl]formamido}-3-hydroxy-2-methylpropanamide] belongs 1000 to 20000 nM; to `Cc1oc2ccc(OCC(C)C)cc2c1C(=O)NC1CCNCC1(F)F` (single isomer, unassigned) [Cpd 042 - En2, N-(3,3-difluoropiperidin-4-yl)-2-methyl-5-(2-methylpropoxy)-1-benzofuran-3-carboxamide], below 1000 nM.
To `Cc1oc2ccc(OCC(C)C)cc2c1C(=O)NC1CCNCC1(F)F` (single isomer, unassigned) [Cpd 042-En1, N-(3,3-difluoropiperidin-4-yl)-2-methyl-5-(2-methylpropoxy)-1-benzofuran-3-carboxamide] belongs 1000 to 20000 nM; to `Cc1oc2ccc(OCC(C)(C)C)cc2c1C(=O)NC1CCNCC1(F)F` (single isomer, unassigned) [Cpd 043-En1, N-(3,3-difluoropiperidin-4-yl)-5-(2,2-dimethylpropoxy)-2-methyl-1-benzofuran-3-carboxamide], 1000 to 20000 nM.
The same measure for `Cc1oc2ccc(OCC(C)(C)C)cc2c1C(=O)NC1CCNCC1(F)F` (single isomer, unassigned) [Cpd 043-En2, N-(3,3-difluoropiperidin-4-yl)-5-(2,2-dimethylpropoxy)-2-methyl-1-benzofuran-3-carboxamide]: 1000 to 20000 nM.
`Cc1oc2ccc(OCC(F)F)cc2c1C(=O)NC1(C(N)=O)CCOC1` (single isomer, unassigned) [Cpd 044 - En1, N-(3-carbamoyloxolan-3-yl)-5-(2,2-difluoroethoxy)-2-methyl-1-benzofuran-3-carboxamide] gave an IC50 of 1000 to 20000 nM.
`Cc1oc2ccc(OCC(F)F)cc2c1C(=O)NC1(C(N)=O)CCOC1` (single isomer, unassigned) [Cpd 044 - En2, N-(3-carbamoyloxolan-3-yl)-5-(2,2-difluoroethoxy)-2-methyl-1-benzofuran-3-carboxamide]: the IC50 is below 1000 nM.
Regarding `Cc1oc2cc(F)c(OCC3CC3)cc2c1C(=O)NC(C)(CO)C(N)=O` (single isomer, unassigned) [Cpd 045 - En1, 2-{[5-(cyclopropylmethoxy)-6-fluoro-2-methyl-1-benzofuran-3-yl]formamido}-3-hydroxy-2-methylpropanamide], the IC50 is below 1000 nM.
The same measure for `Cc1oc2cc(F)c(OCC3CC3)cc2c1C(=O)NC(C)(CO)C(N)=O` (single isomer, unassigned) [Cpd 045 - En2, 2-{[5-(cyclopropylmethoxy)-6-fluoro-2-methyl-1-benzofuran-3-yl]formamido}-3-hydroxy-2-methylpropanamide]: below 1000 nM; for `Cc1oc2ccc(OCC3CC3)cc2c1C(=O)NC(C)(CO)CC(F)F` (single isomer, unassigned) [Cpd 046 - En1, 5-(cyclopropylmethoxy)-N-(4,4-difluoro-1-hydroxy-2-methylbutan-2-yl)-2-methyl-1-benzofuran-3-carboxamide]: below 1000 nM; for `Cc1oc2ccc(OCC3CC3)cc2c1C(=O)NC(C)(CO)CC(F)F` (single isomer, unassigned) [Cpd 046 - En2, 5-(cyclopropylmethoxy)-N-(4,4-difluoro-1-hydroxy-2-methylbutan-2-yl)-2-methyl-1-benzofuran-3-carboxamide]: below 1000 nM.
To `Cc1oc2ccc(OCC(F)(F)F)cc2c1C(=O)NC(C)(CO)C(N)=O` (single isomer, unassigned) [Cpd 047 - En1, 3-hydroxy-2-methyl-2-{[2-methyl-5-(2,2,2-trifluoroethoxy)-1-benzofuran-3-yl]formamido}propanamide] belongs 1000 to 20000 nM.
The molecule `Cc1oc2ccc(OCC(F)(F)F)cc2c1C(=O)NC(C)(CO)C(N)=O` (single isomer, unassigned) [Cpd 047 - En2, 3-hydroxy-2-methyl-2-{[2-methyl-5-(2,2,2-trifluoroethoxy)-1-benzofuran-3-yl]formamido}propanamide] came in with an IC50 below 1000 nM.
For `Cc1oc2ccc(OCC3(C(F)(F)F)CC3)cc2c1C(=O)NC(C)(CO)C(N)=O` (single isomer, unassigned) [Cpd 048 - En1, 3-hydroxy-2-methyl-2-[(2-methyl-5-{[1-(trifluoromethyl)cyclopropyl]methoxy}-1-benzofuran-3-yl)formamido]propanamide], the IC50 is below 1000 nM.
The same measure for `Cc1oc2ccc(OCC3(C(F)(F)F)CC3)cc2c1C(=O)NC(C)(CO)C(N)=O` (single isomer, unassigned) [Cpd 048 - En2, 3-hydroxy-2-methyl-2-[(2-methyl-5-{[1-(trifluoromethyl)cyclopropyl]methoxy}-1-benzofuran-3-yl)formamido]propanamide]: below 1000 nM; for `Cc1oc2ccc(OCC3CC3(C)C)cc2c1C(=O)NC(C)(CO)C(N)=O` (single isomer, unassigned) [Cpd 049 - En1, 2-({5-[(2,2-dimethylcyclopropyl)methoxy]-2-methyl-1-benzofuran-3-yl}formamido)-3-hydroxy-2-methylpropanamide]: below 1000 nM.
The same measure for `Cc1oc2ccc(OCC3CC3(C)C)cc2c1C(=O)NC(C)(CO)C(N)=O` (single isomer, unassigned) [Cpd 049 - En2, 2-({5-[(2,2-dimethylcyclopropyl)methoxy]-2-methyl-1-benzofuran-3-yl}formamido)-3-hydroxy-2-methylpropanamide]: below 1000 nM; for `Cc1oc2ccc(OCC3CC3(C)C)cc2c1C(=O)NC(C)(CO)C(N)=O` (single isomer, unassigned) [Cpd 049 - En3, 2-({5-[(2,2-dimethylcyclopropyl)methoxy]-2-methyl-1-benzofuran-3-yl}formamido)-3-hydroxy-2-methylpropanamide]: below 1000 nM.
The same measure for `Cc1oc2ccc(OCC3CC3(C)C)cc2c1C(=O)NC(C)(CO)C(N)=O` (single isomer, unassigned) [Cpd 049 - En4, 2-({5-[(2,2-dimethylcyclopropyl)methoxy]-2-methyl-1-benzofuran-3-yl}formamido)-3-hydroxy-2-methylpropanamide]: below 1000 nM; for `Cc1oc2ccc(OC[C@@H]3C[C@@H]4C[C@@H]4C3)cc2c1C(=O)NC(C)(CO)C(N)=O` (single isomer, unassigned) [Cpd 050 - En1, Cis-2-{[5-({bicyclo[3.1.0]hexan-3-yl}methoxy)-2-methyl-1-benzofuran-3-yl]formamido}-3-hydroxy-2-methylpropanamide]: 1000 to 20000 nM; for `Cc1oc2ccc(OC[C@@H]3C[C@@H]4C[C@@H]4C3)cc2c1C(=O)NC(C)(CO)C(N)=O` (single isomer, unassigned) [Cpd 050 - En2, Cis-2-{[5-({bicyclo[3.1.0]hexan-3-yl}methoxy)-2-methyl-1-benzofuran-3-yl]formamido}-3-hydroxy-2-methylpropanamide]: below 1000 nM.
`Cc1oc2ccc(OC[C@H]3C[C@@H]4C[C@@H]4C3)cc2c1C(=O)NC(C)(CO)C(N)=O` (single isomer, unassigned) [Cpd 051 - En1, Trans-2-{[5-({bicyclo[3.1.0]hexan-3-yl}methoxy)-2-methyl-1-benzofuran-3-yl]formamido}-3-hydroxy-2-methylpropanamide]: the IC50 was below 1000 nM.
The same measure for `Cc1oc2ccc(OC[C@H]3C[C@@H]4C[C@@H]4C3)cc2c1C(=O)NC(C)(CO)C(N)=O` (single isomer, unassigned) [Cpd 051 - En2, Trans-2-{[5-({bicyclo[3.1.0]hexan-3-yl}methoxy)-2-methyl-1-benzofuran-3-yl]formamido}-3-hydroxy-2-methylpropanamide]: below 1000 nM; for `Cc1oc2ccc(OCC34CC(C)(C3)C4)cc2c1C(=O)NC(C)(CO)C(N)=O` (single isomer, unassigned) [Cpd 052 - En1, 3-hydroxy-2-methyl-2-{[2-methyl-5-({3-methylbicyclo[1.1.1]pentan-1-yl}methoxy)-1-benzofuran-3-yl]formamido}propenamide]: below 1000 nM; for `Cc1oc2ccc(OCC34CC(C)(C3)C4)cc2c1C(=O)NC(C)(CO)C(N)=O` (single isomer, unassigned) [Cpd 052 - En2, 3-hydroxy-2-methyl-2-{[2-methyl-5-({3-methylbicyclo[1.1.1]pentan-1-yl}methoxy)-1-benzofuran-3-yl]formamido}propenamide]: below 1000 nM.
